We go through 17 molecules from US8003660B2, “Modulators of muscarinic receptors” (Vertex Pharmaceuticals Incorporated, priority 2006, dated 2011).

Holding throughout (format): cell-based
Test [1] has as its target T1, M3 muscarinic receptor (Homo sapiens, UniProt P20309).
T1 construct: expressed in transfected cells; host or cells: CHO (M3-CHO)
Nature of the test: Functional mobilization of intracellular calcium (FLIPR) in CHO cells expressing M3. Particulars: for EC50: CHO cells expressing M3, FLIPR calcium; for Emax: CHO, 100% = maximum response obtained with the Carbachol control, read-out: M3 Efficacy. The essentials:
(§1)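 Recombinant CHO cells loaded with Fluo-3 AM or Calcium 3 dye in pH 7.4 buffer containing 1 mM probenecid, with 0.5% final DMSO. For agonism, compound is added directly. For inhibition, it is preincubated 15 min, or co-applied, before carbachol at EC80. FLIPR fluorescence (ex 488, em 540 nm) is recorded for 60 s.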

Test [2] has as its target T2, M1 muscarinic receptor (Homo sapiens, UniProt P11229).
T2 construct: expressed in transfected cells; host or cells: CHO (M1-CHO)
T2 sequence (P11229 1-460): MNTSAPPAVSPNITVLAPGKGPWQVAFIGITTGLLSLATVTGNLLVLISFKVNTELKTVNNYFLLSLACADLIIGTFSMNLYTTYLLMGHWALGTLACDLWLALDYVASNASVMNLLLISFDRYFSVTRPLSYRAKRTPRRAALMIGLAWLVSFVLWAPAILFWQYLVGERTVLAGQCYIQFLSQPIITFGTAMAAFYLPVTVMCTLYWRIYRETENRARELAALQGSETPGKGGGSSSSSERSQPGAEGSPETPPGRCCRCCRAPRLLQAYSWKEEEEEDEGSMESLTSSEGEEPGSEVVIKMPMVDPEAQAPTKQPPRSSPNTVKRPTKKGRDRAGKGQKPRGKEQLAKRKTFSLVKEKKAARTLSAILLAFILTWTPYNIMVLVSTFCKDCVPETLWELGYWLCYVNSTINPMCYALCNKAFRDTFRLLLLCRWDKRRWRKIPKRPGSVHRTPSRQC
The test can be described thus: Functional mobilization of intracellular calcium (FLIPR) in CHO cells expressing M1. Particulars: for EC50: CHO cells expressing M1, FLIPR calcium; for Emax: CHO, 100% = maximum response obtained with the Carbachol control, read-out: M1 Efficacy. The essentials: as §1

For test [3], the target named is T3, M2 muscarinic receptor (Homo sapiens, UniProt P08172).
T3 construct: expressed in transfected cells; host or cells: CHO (M2-CHO)
T3 sequence (P08172 1-466): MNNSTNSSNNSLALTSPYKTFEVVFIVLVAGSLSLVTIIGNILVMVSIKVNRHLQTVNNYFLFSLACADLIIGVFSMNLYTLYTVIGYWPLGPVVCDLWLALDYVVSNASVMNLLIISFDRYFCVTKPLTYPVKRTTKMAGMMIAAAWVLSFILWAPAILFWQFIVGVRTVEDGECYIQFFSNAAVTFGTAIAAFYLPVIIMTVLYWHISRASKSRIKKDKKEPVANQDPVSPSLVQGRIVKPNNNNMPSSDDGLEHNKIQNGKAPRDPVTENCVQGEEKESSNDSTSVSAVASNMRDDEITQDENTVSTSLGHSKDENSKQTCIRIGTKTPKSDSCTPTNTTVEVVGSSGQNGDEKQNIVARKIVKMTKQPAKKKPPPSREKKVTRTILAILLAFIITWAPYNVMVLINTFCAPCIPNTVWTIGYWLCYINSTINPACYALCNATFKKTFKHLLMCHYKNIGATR
Nature of the test: Functional mobilization of intracellular calcium (FLIPR) in CHO cells expressing M2. Particulars: for EC50: CHO cells expressing M2, FLIPR calcium; for Emax: CHO, 100% = maximum response obtained with the Carbachol control, read-out: M2 Efficacy. The essentials: as §1

The target in test [4] is T4, M4 muscarinic receptor (Homo sapiens, UniProt P08173).
T4 construct: expressed in transfected cells; host or cells: CHO (M4-CHO)
T4 sequence (P08173 1-479): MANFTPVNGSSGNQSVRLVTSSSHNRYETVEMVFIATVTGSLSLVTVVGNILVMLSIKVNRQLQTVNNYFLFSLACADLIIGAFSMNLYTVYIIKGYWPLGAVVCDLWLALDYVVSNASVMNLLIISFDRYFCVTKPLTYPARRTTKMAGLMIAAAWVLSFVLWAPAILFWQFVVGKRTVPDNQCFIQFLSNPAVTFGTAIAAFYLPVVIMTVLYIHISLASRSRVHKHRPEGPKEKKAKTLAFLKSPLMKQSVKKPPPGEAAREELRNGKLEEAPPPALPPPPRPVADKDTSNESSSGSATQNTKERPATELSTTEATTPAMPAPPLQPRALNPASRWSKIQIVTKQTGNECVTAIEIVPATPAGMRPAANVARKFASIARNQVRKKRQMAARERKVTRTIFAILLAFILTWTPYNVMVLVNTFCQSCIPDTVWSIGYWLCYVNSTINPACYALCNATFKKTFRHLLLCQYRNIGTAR
The test can be described thus: Functional mobilization of intracellular calcium (FLIPR) in CHO cells expressing M4. Particulars: for EC50: CHO cells expressing M4, FLIPR calcium; for Emax: CHO, 100% = maximum response obtained with the Carbachol control, read-out: M4 Efficacy. The essentials: as §1

Structures are written as SMILES. Where only a bound is given, the exact number is not on record here.

T1 sequence (P20309 whole entry): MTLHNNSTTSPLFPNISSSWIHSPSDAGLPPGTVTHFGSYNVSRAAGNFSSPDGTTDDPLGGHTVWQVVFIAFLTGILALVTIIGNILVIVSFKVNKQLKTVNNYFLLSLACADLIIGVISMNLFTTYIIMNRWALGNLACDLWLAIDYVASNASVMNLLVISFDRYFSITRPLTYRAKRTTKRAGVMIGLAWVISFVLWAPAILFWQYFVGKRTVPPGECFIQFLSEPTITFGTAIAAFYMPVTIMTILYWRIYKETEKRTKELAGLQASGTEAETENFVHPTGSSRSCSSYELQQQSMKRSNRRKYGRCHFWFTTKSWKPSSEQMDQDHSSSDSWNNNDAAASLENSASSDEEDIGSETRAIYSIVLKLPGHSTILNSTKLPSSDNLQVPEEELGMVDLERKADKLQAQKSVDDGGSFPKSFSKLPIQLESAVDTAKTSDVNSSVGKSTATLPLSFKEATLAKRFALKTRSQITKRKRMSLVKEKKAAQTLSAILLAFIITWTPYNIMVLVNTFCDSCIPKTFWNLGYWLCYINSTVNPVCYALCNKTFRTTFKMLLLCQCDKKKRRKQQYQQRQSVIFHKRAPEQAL

In the case of `CC(C)(C)CCN1CCC2(CC[C@H](NC(=O)CC3CCOCC3)c3ccccc32)CC1` [compound 135], the EC50 in test [1] was above 5 µM; in test [2] it was below 2 µM; in test [3], above 5 µM; in test [4] it was below 2 µM. Also, the Emax was below 25% in test [1], 25 to 100% in test [2], below 25% in test [3] and 25 to 100% in test [4].
For the molecule `CCN(C(=O)Cc1cccnc1)[C@H]1CCC2(CCN(CCC(C)(C)C)CC2)c2ccccc21` [compound 136], the EC50 in test [1] was above 5 µM; in test [2], 2 to 5 µM; in test [3], 2 to 5 µM; in test [4], below 2 µM. The Emax was below 25% in test [1], 25 to 100% in test [2], below 25% in test [3] and 25 to 100% in test [4].
As to `C[C@@H](C(=O)N[C@H]1CCC2(CCN(CCC(C)(C)C)CC2)c2ccccc21)N1CCCC1=O` [compound 137], the EC50 was above 5 µM in test [1], below 2 µM in test [2], above 5 µM in test [3] and below 2 µM in test [4]. For the same molecule, the Emax in test [1] was below 25%; in test [2] it was 25 to 100%; in test [3], below 25%; in test [4], 25 to 100%.
With `CC(C)(C)CCN1CCC2(CC[C@H](NC(=O)CCN3CCCC3=O)c3ccc(F)cc32)CC1` [compound 138], the concentration giving a half-maximal response (EC50) was above 5 µM in test [1], below 2 µM in test [2], below 2 µM in test [3] and below 2 µM in test [4]. Moreover, the Emax was below 25% in test [1], 25 to 100% in test [2], 25 to 100% in test [3] and 25 to 100% in test [4].
On to `C[C@@H](O)CC(=O)N[C@@H]1CCC2(CCN(CCC(C)(C)C)CC2)c2ccccc21` [compound 139], for which the EC50 in test [1] was above 5 µM; in test [2], 2 to 5 µM; in test [3], above 5 µM; in test [4] it was below 2 µM. In addition, the Emax in test [1] was below 25%; in test [2], below 25%; in test [3], below 25%; in test [4], 25 to 100%.
Turning to `CCOCC(=O)N(CC)[C@H]1CCC2(CCN(CCC(C)(C)C)CC2)c2ccccc21` [compound 140], the EC50 was above 5 µM in test [1], 2 to 5 µM in test [2], above 5 µM in test [3] and below 2 µM in test [4]. Moreover, the Emax in test [1] was below 25%; in test [2], 25 to 100%; in test [3] it was below 25%; in test [4] it was 25 to 100%.
`CC#CCN(C(C)=O)[C@H]1CCC2(CCN(CCC(C)C)CC2)c2ccccc21` [compound 141]: the EC50 in test [1] was above 5 µM; in test [2], below 2 µM; in test [3], above 5 µM; in test [4] it was below 2 µM. The Emax in test [1] is below 25%; in test [2], 25 to 100%; in test [3], below 25%; in test [4], 25 to 100%.
Take `CC(C)CCN1CCC2(CC[C@H](N3C(=O)CCC3=O)c3ccccc32)CC1` [compound 142]: the EC50 is above 5 µM in test [1], 2 to 5 µM in test [2], above 5 µM in test [3] and above 5 µM in test [4]. For the same molecule, the Emax is below 25% in test [1], 25 to 100% in test [2], below 25% in test [3] and below 25% in test [4].
With `CC(=O)N1CCCC(C(=O)N[C@@H]2CCC3(CCN(CCC(C)(C)C)CC3)c3ccccc32)C1` (stereo partly shown) [compound 143], the 50% effective concentration (EC50) is above 5 µM in test [1], 2 to 5 µM in test [2], above 5 µM in test [3] and below 2 µM in test [4]. The Emax in test [1] was below 25%; in test [2], 25 to 100%; in test [3], below 25%; in test [4] it was 25 to 100%.
In the case of `CN1CC(C(=O)N[C@H]2CCC3(CCN(CCC(C)(C)C)CC3)c3ccccc32)CC1=O` (stereo partly shown) [compound 144], the EC50 is above 5 µM in test [1], below 2 µM in test [2], below 2 µM in test [3] and below 2 µM in test [4]. For the same molecule, the Emax in test [1] was below 25%; in test [2], 25 to 100%; in test [3], 25 to 100%; in test [4], 25 to 100%.
Regarding `CC(C)(C)CCN1CCC2(CC[C@H](NC(=O)CC3CCOCC3)c3ccc(F)cc32)CC1` [compound 145], the concentration for a half-maximal effect (EC50) in test [1] is above 5 µM; in test [2], below 2 µM; in test [3], below 2 µM; in test [4] it was below 2 µM. In addition, the Emax was below 25% in test [1], 25 to 100% in test [2], below 25% in test [3] and 25 to 100% in test [4].
As for `C[C@@H](C(=O)N[C@@H]1CCC2(CCN(CCC(C)(C)C)CC2)c2ccccc21)N1CCCC1=O` [compound 146], the EC50 in test [1] is above 5 µM; in test [2], above 5 µM; in test [3] it was above 5 µM; in test [4], below 2 µM. Further, the Emax in test [1] was below 25%; in test [2] it was 25 to 100%; in test [3], below 25%; in test [4], 25 to 100%.
For the molecule `COCCC(=O)N[C@H]1CCC2(CCN(CCC(C)(C)C)CC2)c2ccccc21` [compound 147], the EC50 was above 5 µM in test [1], below 2 µM in test [2], below 2 µM in test [3] and below 2 µM in test [4]. Also, the Emax was below 25% in test [1], 25 to 100% in test [2], 25 to 100% in test [3] and 25 to 100% in test [4].
As for `CC(C)CCN1CCC2(CC[C@H](NC(=O)N(C)C)c3ccccc32)CC1` [compound 148], the EC50 in test [1] is above 5 µM; in test [2], above 5 µM; in test [3], above 5 µM; in test [4], 2 to 5 µM. Besides, the Emax in test [1] is below 25%; in test [2], below 25%; in test [3] it was below 25%; in test [4], 25 to 100%.
As to `CC(=O)N1CCCC[C@@H]1C(=O)N[C@@H]1CCC2(CCN(CCC(C)(C)C)CC2)c2cc(F)ccc21` [compound 149], the concentration for a half-maximal effect (EC50) in test [1] is above 5 µM; in test [2] it was 2 to 5 µM; in test [3], 2 to 5 µM; in test [4], below 2 µM. Moreover, the Emax in test [1] is below 25%; in test [2] it was 25 to 100%; in test [3], 25 to 100%; in test [4], 25 to 100%.
As for `CC(=O)N[C@H]1CCC2(CCN(CC=C(C)C)CC2)c2ccccc21` [compound 150], the EC50 was above 5 µM in test [1], above 5 µM in test [2], above 5 µM in test [3] and 2 to 5 µM in test [4]. The Emax was below 25% in test [1], 25 to 100% in test [2], below 25% in test [3] and 25 to 100% in test [4].
For the molecule `Cc1cc(C(=O)N[C@H]2CCC3(CCN(CCC(C)(C)C)CC3)c3ccccc32)nn1C` [compound 151], the EC50 is above 5 µM in test [1], below 2 µM in test [2], above 5 µM in test [3] and below 2 µM in test [4]. The Emax in test [1] was below 25%; in test [2] it was 25 to 100%; in test [3], below 25%; in test [4] it was 25 to 100%.
